The record followed here is patent US12030903B2, “Antiviral compounds” (Gilead Sciences, Inc., priority 2020, dated 2024).

SMILES strings stand for the structures. Some results are limits rather than exact numbers.

For series [1], the system named is Dengue 2, New Guinea strain (NGC). Briefly: DENV-2 moDC EC50 (qPCR of viral RNA in infected moDCs). Type of series: cell-based, New Guinea strain (NGC); human moDCs. The settings on record: Dengue virus, human moDCs infected with Dengue 2 NGC, MOI=0.1, 48 hours. As for the experimental part: Example 82. DENV-2 moDC EC50
Human monocyte-derived dendritic cells (moDCs) were derived from CD14+ monocytes (AllCells) cultured in Human Mo-DC Differentiation medium containing GM-CSF and IL-4 (Miltenyi Biotec). On day 7, moDCs were harvested by mechanical disruption, washed and suspended in serum-free RPMI. moDCs were infected with Vero-derived Dengue 2, New Guinea strain (NGC) at a MOI=0.1 for two hours in serum-free RPMI with gentle agitation at 37° C. Cells were washed and resuspended in 10% serum-containing RPMI (Gibco, supplemented with sodium pyruvate, NEAA, Penicillin-Streptomycin). […] were plated in triplicate in 96-well plates with compounds dispensed at graded doses (Hewlett-Packard D300 Digital Dispenser). All wells were normalized to 0.25% DMSO. At 48 hours, cells were washed with 1×PBS and all supernatants removed. Total RNA was extracted using RNEasy 96 plates (Qiagen) and used to generate first-strand cDNA using XLT cDNA 5× Supermix (QuantaBio). cDNA was used as a template in a Taqman qPCR duplex reaction specific to DENV2 viral and GAPDH gene expression. EC50 values were determined using Prism Graphpad software, with normalization to a positive control and no compound negative control wells.

Series [2] can be described thus: moDC CC50 (CellTiter Glo viability). The class given is cell-based, Human. The settings on record: human, uninfected moDCs. How it is done: Human monocyte-derived dendritic cells (moDCs) were derived from CD14+ monocytes (AllCells) cultured in Human Mo-DC Differentiation medium containing GM-CSF and IL-4 (Miltenyi Biotec). On day 7, moDCs were harvested by mechanical disruption, washed and cultured in triplicate at […] cells/well in 96-well plates with compounds dispensed at graded doses (Hewlett-Packard D300 Digital Dispenser). All wells were normalized to 0.25% DMSO. After 48 hours, CellTiter Glo (Promega) was added and incubated for 10 minutes at room temp before reading on a luminometer. % viability curves were calculated against no compound and no cell control wells. CC50 values were determined using Prism Graphpad software.
(Cellular ATP, detected with luciferase, serves as a proxy for viable cell number.)

The test system of series [3] is Dengue serotype 2 New Guinea C (NGC) strain. Briefly: DENV-2 Huh-7 EC50 (qPCR of viral RNA in infected Huh7 cells). The settings on record: Dengue virus, DENV2, Huh-7, Huh7 cells infected with Dengue serotype 2 NGC, MOI=0.1, 48 hours. Type of series: cell-based. As for the experimental part: Huh7 (Human hepatocarcinoma 7) cells were maintained in 10% FCS-containing DMEM complete media. On the day of the assay, cells were trypsinized (0.1% Trypsin-EDTA), washed and infected for 2 hours in serum-free DMEM with Dengue serotype 2 New Guinea C (NGC) strain at MOI=0.1 with gentle agitation at 37° C. After 2 hours, cells were washed with serum-free media and suspended in 10% FCS-containing DMEM (Gibco, supplemented with sodium pyruvate, NEAA, Penicillin-Streptomycin). 10^5 cells were plated in triplicate in 96-well plates with compounds dispensed at graded doses (Hewlett-Packard D300 Digital Dispenser). All wells were normalized to 0.25% DMSO. At 48 hours, cells were washed with 1× PBS and all supernatants removed. Total RNA was extracted using RNEasy 96 plates (Qiagen) and used to generate first-strand cDNA using XLT cDNA 5× Supermix (QuantaBio). cDNA was used as a template in a Taqman qPCR duplex reaction specific to DENV2 viral and GAPDH gene expression. EC50 values were determined using Prism Graphpad software, with normalization to a positive control and no compound negative control wells.
In general terms: In qPCR the cycle at which signal appears reflects the starting amount.

A short description of series [4]: Huh-7 CC50 (CellTiter Glo viability). Type of series: cell-based, Human. The settings on record: human, Huh7 hepatocarcinoma cells. How it is done: Human hepatocarcinoma 7 (Huh7) cells were maintained in 10% FCS-containing complete DMEM. On day of assay, cells were trypsinized with 0.1% Trypsin-EDTA, washed and cultured in triplicate at 1-2×10^4 cells/well in 96-well plates with compounds dispensed at graded doses (Hewlett-Packard D300 Digital Dispenser). All wells were normalized to 0.25% DMSO. After 48 hours, CellTiter Glo (Promega) was added and incubated for 10 minutes at room temp before reading on a luminometer. % viability curves were calculated against no compound and no cell control wells. CC50 values were determined using Prism Graphpad software.

The test system of series [5] is RSV strain A2. Briefly: RSV HEp-2 EC50 (infectious cytopathic cell protection assay). Type of series: cell-based, RSV strain A2; HEp-2 cells. The settings on record: human respiratory syncytial virus, HEp-2, 96 h, read-out: RSV Hep-2 EC50. As for the experimental part: Example 86. RSV HEp-2 EC50
Antiviral activity against RSV is determined using an infectious cytopathic cell protection assay in HEp-2 cells. In this assay, compounds inhibiting viral infection and/or replication produce a cytoprotective effect against the virus-induced cell killing that can be quantified using a cell viability reagent. The techniques used here are novel adaptations of methods described in published literature (Chapman et al., Antimicrob Agents Chemother. 2007, 51(9):3346-53.)
HEp-2 cells are obtained from ATCC (Manassas, VI) and maintained in MEM media supplemented with 10% fetal bovine serum and penicillin/streptomycin. Cells are passaged twice a week and kept at subconfluent stage. Commercial stock of RSV strain A2 (Advanced Biotechnologies, Columbia, MD) is titered before compound testing to determine the appropriate dilution of the virus stock that generates desirable cytopathic effect in HEp-2 cells.
For antiviral tests, HEp-2 cells are grown in large cell culture flasks to near confluency but not fully so. The compounds to be tested are prediluted in DMSO in 384-well compound dilution plates, either in an 8 or 40 sample per plate standardized dose response format. 3-fold serial dilution increments of each test compound are prepared in the plates and test samples are transferred via acoustic transfer apparatus (Echo, Labcyte) at 100 nL per well into cell culture assay 384-well plates. Each compound dilution is transferred in single or quadruplicate samples into dry assay plates, which are stored until assay is ready to go. The positive and negative controls are laid out in opposite on ends of the plate in vertical blocks (1 column).
Subsequently, an infectious mixture is prepared using an appropriate dilution of virus stock previously determined by titration with cells at a density of 50,000/mL and 20 uL/well is added to test plates w/compounds via automation (uFlow, Biotek). Each plate includes negative and positive controls (16 replicates each) to create 0% and 100% virus inhibition standards, respectively. Following the infection with RSV, testing plates are incubated for 4 days in a 37° C. cell culture incubator. After the incubation, a cell viability reagent, Cell TiterGlo (Promega, Madison, WI) is added to the assay plates, which are incubated briefly, and a luminescent readout is measured (Envision, Perkin Elmer) in all the assay plates. The RSV-induced cytopathic effect, percentage inhibition, is determined from the levels of remaining cell viability. […] Various potent anti-RSV tool compounds are used as positive controls for antiviral activity.
(In general: Damage to the host cells serves as the signal in cytopathic effect assays.)

Series [6] in a line: HEp-2 CC50 (cytotoxicity in uninfected HEp-2 cells). The note with it: human, CellTiter Glo. Type of series: cell-based. As for the experimental part: Instead, an uninfected cell mixture at the same density is added at 20 uL/well to plates containing prediluted compounds, also at 100 nL/sample. Assay plates are then incubated for 4 days followed by a cell viability test using the same CellTiter Glo reagent addition and measurement of luminescent readouts. Untreated cell and cells treated at 2 μM puromycin (Sigma, St. Louis, MO) serve as 100% and 0% cell viability control, respectively.

What is called EC50 is the midpoint of the concentration-response curve. The CC50 is the concentration that lowers cell viability or growth by half. `CC(C)C(=O)O[C@H]1[C@H](c2ccc3c(N)ncnn23)O[C@](CF)(COP(=O)(N[C@@H](C)C(=O)OC2CCCCC2)Oc2ccccc2)[C@H]1OC(=O)C(C)C` (single isomer, unassigned) [Example 63]: the EC50 in series [1] came out at 321 nM; in series [3] it was 602 nM; in series [5], 2420 nM. Further, the CC50 at 48 h in series [2] came out at 5600 nM; in series [4], 10700 nM. This compound also came in with a CC50 at 4 days in series [6] of 19100 nM.
Consider `C[C@H](NP(=O)(OC[C@@]1(CF)O[C@@H](c2ccc3c(N)ncnn23)[C@H](O)[C@@H]1O)Oc1ccccc1)C(=O)OCC(C)(C)C` (stereo partly drawn) [Example 3, neopentyl ((((2R,3S,4R,5S)-5-(4-aminopyrrolo[2,1-f][1,2,4]triazin-7-yl)-2-(fluoromethyl)-3,4-dihydroxytetrahydrofuran-2-yl)methoxy)(phenoxy)phosphoryl)-L-alaninate], for which the EC50 in series [1] came out at 156 nM; in series [3] it was 92 nM; in series [5], 77 nM. For the same compound, the CC50 at 48 h in series [2] was over 11100 nM; in series [4], over 25000 nM. In addition, the CC50 at 4 days in series [6] was over 100000 nM.
In the case of `C[C@H](NP(=O)(OC[C@@]1(CF)O[C@@H](c2ccc3c(N)ncnn23)[C@H](O)[C@@H]1O)Oc1ccccc1)C(=O)OCCC(C)(C)C` (stereo partly drawn) [Example 4, 3,3-dimethylbutyl ((((2R,3S,4R,5S)-5-(4-aminopyrrolo[2,1-f][1,2,4]triazin-7-yl)-2-(fluoromethyl)-3,4-dihydroxytetrahydrofuran-2-yl)methoxy)(phenoxy)phosphoryl)-L-alaninate], the concentration for a half-maximal effect (EC50) was 58 nM in series [1], 132 nM in series [3] and 29 nM in series [5]. The CC50 at 48 h in series [2] amounted to 4780 nM; in series [4], 17800 nM. The compound further had a CC50 at 4 days in series [6] of over 100000 nM.
As to `CCC(C)(C)COC(=O)[C@H](C)NP(=O)(OC[C@@]1(CF)O[C@@H](c2ccc3c(N)ncnn23)[C@H](O)[C@@H]1O)Oc1ccccc1` (stereo partly drawn) [Example 7, 2,2-dimethylbutyl ((((2R,3S,4R,5S)-5-(4-aminopyrrolo[2,1-f][1,2,4]triazin-7-yl)-2-(fluoromethyl)-3,4-dihydroxytetrahydrofuran-2-yl)methoxy)(phenoxy)phosphoryl)-L-alaninate], the EC50 is 40 nM in series [1], 159 nM in series [3] and 24 nM in series [5]. Further, the half-maximal cytotoxic concentration (CC50) at 48 h in series [2] was 6690 nM; in series [4] it was over 25000 nM. Further, the CC50 at 4 days in series [6] is over 100000 nM.
For the compound `CCOC(=O)[C@H](C)NP(=O)(OC[C@@]1(CF)O[C@@H](c2ccc3c(N)ncnn23)[C@H](O)[C@@H]1O)Oc1ccccc1` (stereo partly drawn) [Example 13, ethyl ((((2R,3S,4R,5S)-5-(4-aminopyrrolo[2,1-f][1,2,4]triazin-7-yl)-2-(fluoromethyl)-3,4-dihydroxytetrahydrofuran-2-yl)methoxy)(phenoxy)phosphoryl)-L-alaninate], the EC50 in series [1] amounted to 274 nM; in series [3], 487 nM; in series [5] it was 844 nM. Besides, the CC50 at 48 h was over 10200 nM in series [2] and over 25000 nM in series [4]. Further, the CC50 at 4 days in series [6] is over 89400 nM.
Regarding `C[C@H](NP(=O)(OC[C@@]1(CF)O[C@@H](c2ccc3c(N)ncnn23)[C@H](O)[C@@H]1O)Oc1ccccc1)C(=O)OC1CCCCC1` (stereo partly drawn) [Example 14, cyclohexyl ((((2R,3S,4R,5S)-5-(4-aminopyrrolo[2,1-f][1,2,4]triazin-7-yl)-2-(fluoromethyl)-3,4-dihydroxytetrahydrofuran-2-yl)methoxy)(phenoxy)phosphoryl)-L-alaninate], the figures for the EC50 in series [1], in series [3] and in series [5] were 165 nM, 205 nM and 187 nM, respectively. Moreover, the results for the CC50 at 48 h in series [2] and in series [4] were over 7760 nM and over 25000 nM, respectively. The compound further displayed a CC50 at 4 days in series [6] of over 100000 nM.
On to `CCC(=O)O[C@H]1[C@H](c2ccc3c(N)ncnn23)O[C@](CF)(CO[P@@](=O)(N[C@@H](C)C(=O)OC(C)C)Oc2ccccc2)[C@H]1OC(=O)CC` [Example 22, (2R,3S,4S,5S)-5-(4-aminopyrrolo[2,1-f][1,2,4]triazin-7-yl)-2-(fluoromethyl)-2-((((S)-(((S)-1-isopropoxy-1-oxopropan-2-yl)amino)(phenoxy)phosphoryl)oxy)methyl) tetrahydrofuran-3,4-diyl dipropionate], for which the EC50 in series [1] worked out at 735 nM; in series [3], 1030 nM; in series [5], 2360 nM. The CC50 at 48 h in series [2] was over 23600 nM; in series [4], over 25000 nM. In series [6], this compound returned a cytotoxic concentration (CC50) at 4 days of 71700 nM.
Consider `CC(C)OC(=O)[C@H](C)N[P@](=O)(OC[C@@]1(CF)O[C@@H](c2ccc3c(N)ncnn23)[C@H](OC(=O)C(C)C)[C@@H]1OC(=O)C(C)C)Oc1ccccc1` [Example 23, (2R,3S,4S,5S)-5-(4-aminopyrrolo[2,1-f][1,2,4]triazin-7-yl)-2-(fluoromethyl)-2-((((S)-(((S)-1-isopropoxy-1-oxopropan-2-yl)amino)(phenoxy)phosphoryl)oxy)methyl) tetrahydrofuran-3,4-diyl bis(2-methylpropanoate)], for which the EC50 came out at 387 nM in series [1], 1800 nM in series [3] and 4320 nM in series [5]. For the same compound, the CC50 at 48 h in series [2] is 10900 nM; in series [4], over 23200 nM. Also, it took 26300 nM to reach half-maximal cytotoxicity in series [6] (CC50 at 4 days).
